Values quoted from earlier work as cited in patent publication US11013844B2, “Treatment device for plasma virus inactivation” (City of Hope, priority 2014, dated 2021).

Details: within 6 days

SMILES: CN(C)c1ccc2nc3ccc(N(C)C)cc3[s+]c2c1.[Cl-] [methylene blue, 3,7-bis(dimethylamino)phenothiazin-5-ium chloride]
- methylene blue drained through urine: 74%
- part drained through urine in the original form (the other is white methylene blue): 22%
